Measured values as given in US11524975B2, “Amphiphilic compound having dendronic hydrophobic group and application thereof” (Industry-University Cooperation Foundation Hanyang …, priority 2017, dated 2022).
Like-named read-outs stand apart in the source and are kept apart here.

Legend:
[1] = Critical micelle concentration by hydrophobic fluorescence staining with diphenylhexatriene (DPH); format: physicochemical
Experimental: A method of measuring CMC is not particularly limited, and may be a method widely known in the art, for example, fluorescent staining using diphenylhexatriene (DPH).
(§1) To identify the properties of DTMs synthesized according to the synthetic methods of Examples 1 and 2, the molecular weights (M.W.) and critical micellar concentrations (CMCs) of DTMs, and hydrodynamic radii (Rh) of formed micelles were measured.
(§2) Specifically, the CMCs were measured using hydrophobic fluorescence staining and diphenylhexatriene (DPH), and the hydrodynamic radii (Rh) of the micelles formed by each formulation were measured by dynamic light scattering (DLS).

[2] = Hydrodynamic radius of micelles by dynamic light scattering (DLS); format: physicochemical; details: 0.5 wt % detergent concentration
Experimental: A method of measuring the radius of a micelle is not particularly limited, but may be a method well known in the art, for example, dynamic light scattering (DLS).
as §1, §2

LHI-RC complex = test system: T1, LHI-RC complex; test: Structural stability of LHI-RC complex in detergent, UV-Vis absorbance at 875 nm; parameters: species or system R. capsulatus; details: 25° C., FIG. 5
T1 construct: His tag (implied only by Ni-NTA / HisSpinTrap purification); made in house; host or cells: R. capsulatus U43 [pUHTM86Bgl] membranes
Experimental: An experiment was conducted to evaluate the stabilization ability of DTMs on LHI-RC. The photosynthetic super assembly consists of a complex of light-harvesting complex I (LHI) and a reaction center (RC). The structural stability of LHI-RC was measured by a method of monitoring the structure of a protein for 20 days using UV-Vis spectroscopy. LHI-RC protein stability according to the concentration of an amphiphilic molecule was investigated using all DTMs of the present invention, and conventional amphiphilic molecules, such as DDM and OG, and the concentrations of an amphiphilic molecule used here were CMC+ 0.04 wt % (FIG. 5a) and CMC+ 0.2 wt % (FIG. 5b).
Specifically, LHI-RC stability was measured using a method disclosed in the paper published in 2008 by the inventors (P. S. Chae et al., ChemBioChem 2008, 9, 1706-1709.). […] A 10 mL aliquot of the solution of the frozen R. capsulatus membrane was homogenized using a glass homogenizer, and incubated with gentle stirring at 32° C. for 30 minutes. The homogenized membrane was treated with 1.0 wt % DDM for 30 minutes at 32° C. […] Protein stability was measured at regular intervals during the incubation by measuring UV-Vis spectra of the samples in the range of 650 to 950 nm. Protein integrity was evaluated by monitoring absorbance (A875) at 875 nm.

[3] = target: T2, MelBSt (melibiose permease) (Salmonella typhimurium, UniProt P30878); details: 1.5 wt % detergent, 90 minutes
T2 construct: made in house; host or cells: E. coli DW2 (ΔmelB, ΔlacZY), plasmid pK95ΔAHB/WT MelBSt/CH10
Experimental: Specifically, Salmonella typhimurium MelBSt (melibiose permease) having a 10-His tag at the C-terminus was expressed in E. coli DW2 cells (ΔmelB and ΔlacZY) using a pK95ΔAHB/WT MelBSt/CH10 plasmid. Cell growth and membrane preparation were carried out according to the methods disclosed in the paper written by A. S. Ethayathulla et al. (Nat. Commun. 2014, 5, 3009). A protein assay was performed using a Micro BCA kit (Thermo Scientific, Rockford, Ill.). MelBSt stability in DTMs or DDM was evaluated using the protocol disclosed in Nat. Methods 2010, 7, 1003-1008, written by P. S. Chae et al. A MelBSt-containing membrane sample (the final protein concentration was 10 mg/mL) was incubated in a solubilization buffer containing 1.5% (w/v) DDM or DTM (20 mM sodium phosphate, pH 7.5, 200 mM NaCl, 10% glycerol and 20 mM melibiose) at four different temperatures (0, 45, 55 and 65° C.) for 90 minutes. To remove an insoluble material, ultracentrifugation was performed using a Beckman Optima™ MAX ultracentrifuge equipped with a TLA-100 rotor at 355,590 g and 4° C. for 45 minutes. […] The loaded samples were analyzed by SDS-15% PAGE, and then visualized by immunoblotting with a Penta-His-HRP antibody (Qiagen, Germantown, Md.).

MelBSt and MelBEc = test: Galactoside-binding Trp→D2G FRET assay of detergent-solubilized MelB homologs; format: biochemical; details: 1.0% detergent, 60 minutes at 23° C., FIG. 8c
Experimental: In addition, RSO vesicles were prepared to be used for Trp→D^2G FRET assay. The RSO membrane vesicles were prepared by osmotic lysis from E. coli DW2 cells containing MelBSt or MelBEc. The RSO membrane vesicles mixed in a buffer (pH 7.5) containing 100 mM KPi and 100 mM NaCl at a protein concentration of 1 mg/ml were treated with 1.0% individual compounds (DDM, DTM-A5 and DTM-A6) for 60 minutes at 23° C., and ultracentrifuged using a TLA 120.2 rotor at 300,000 g or more for 45 minutes at 4° C. Supernatants were applied to a FRET (Trp→D^2G) experiment using an Amico-Bowman Series 2 (AB2) spectrofluorometer. The 2′-(N-dansyl)aminoalkyl-1-thio-β-D-galactopyranoside (D^2G, dansyl-galactoside) was obtained from Drs. Gerard Leblanc and H. Ronald Kaback. D^2G FRET signals of MelBSt and MelBEc were collected at 490 and 465 nm, respectively, upon excitation of Trp residues at 290 nm. 10 μM D^2G and excess melibiose or an equal amount of water (control) was added into an MelB solution at the time points of 1 minute and 2 minutes, respectively.

β2AR = target: T3, β2AR (Homo sapiens, UniProt P07550); test: β2AR stability in detergent, [3H]-dihydroalprenolol (DHA) binding; format: biochemical; details: CMC+0.2 wt %, 4 days at room temperature, FIG. 9a
T3 construct: made in house; host or cells: Sf9 insect cells, baculovirus
Experimental: A receptor was expressed in Sf9 insect cells infected with a baculovirus and solubilized in 1% DDM. The DDM-solubilized receptor was purified by alprenolol-sepharose in the presence of 0.01% cholesteryl succinate (CHS). β2AR purified by DDM was diluted with a buffer containing DDM or DTM (DTM-A6, DTM-A7 or DTM-E7) to reach the final concentration of CMC+0.2 wt %. β2AR solubilized in each compound was stored for 4 days at room temperature, and the ligand binding ability of the receptor was measured at regular intervals by incubating the receptor with 10 nM radioactive [^3H]-dihydroalprenolol (DHA) for 30 minutes at room temperature. The mixture was loaded into a G-50 column, and a supernatant was collected using a certain amount of binding buffer (supplemented with 20 mM HEPES pH 7.5, 100 mM NaCl, 0.5 mg/ml BSA). In addition, a 15 ml scintillation fluid was added. Receptor-binding [^3H]-DHA was measured using a scintillation counter (Beckman).

β2AR-Gs complex [4] = target: T4, β2AR-Gs complex (Homo sapiens, UniProt P07550); details: DDM-purified complex, previous study; cited from earlier work
T4 construct: made in house; host or cells: β2AR: Sf9 insect cells

β2AR-Gs complex [5] = target: T4, β2AR-Gs complex; details: DDM-purified complex, previous study; cited from earlier work; remark: listed apart in the source
β2AR-Gs complex [6] = target: T4, β2AR-Gs complex; test: Stability of β2AR-Gs complex by analytical gel filtration (SEC); details: complex purified in detergent, compound-free running buffer, 3 and 15-day incubation, FIG. 9b
Experimental: 100 μM β2AR solubilized in 0.1% DDM was mixed with 120 μM Gs heterotrimer for 30 minutes at room temperature. 0.5 unit of apyrase (NEB) and 2 mM MgCl2 was added to facilitate complex formation, followed by further incubation for one hour. Subsequently, 1% DTM-A6 was added such that the final concentration reached 0.8%, and the sample was further incubated for 30 minutes to change DDM to DTM-A6. The protein solution was loaded into a M1 Flag column, washed with a series of buffers with different molar ratios of 0.1% DDM buffer to 0.5% DTM-A6 buffer to completely change DDM to DTM-A6, and the protein was finally eluted with 0.05% (70×CMC) DTM-A6 buffer. Preparative gel filtration was performed to purify the β2AR-Gs complex with a running buffer (20 mM HEPES pH 7.5, 100 mM NaCl, 0.005% DTM-A6, 1 mM BI, […]). To measure the stability of the β2AR-Gs complex in DTM-A6, analytical gel filtrations were performed using the running buffer as above, but after 3 and 15-day incubation, performed without DTM-A6 (compound-free condition).

β2AR-Gs complex [7] = target: T4, β2AR-Gs complex; test: Negative stain EM analysis of β2AR-Gs complex; details: FIG. 11
Experimental: A β2AR-Gs protein complex was prepared for electron microscopy using a conventional negative staining protocol, and imaged at room temperature using a Tecnai T12 electron microscope operated at 120 kV according to a low-dose procedure. Images were recorded at a magnification of 71,138× and a defocus value of approximately ˜1.1 μm on a Gatan US4000 CCD camera. All images were binned (2×2 pixels) to obtain a pixel size of 4.16 Å at a specimen level. Particles were manually […] using e2boxer (part of the EMAN2 software suite). 2D reference-free alignment and classification of particle projections were performed using ISAC. 124,279 projections of β2AR-Gs were subjected to ISAC producing 131 classes consistent in two-way matching and 10,000 particle projections.

[8] = DPH fluorescence staining, aqueous solution

Row | Structure (SMILES) | CMC [1] | CMC [1, 8] | CMC (wt %) [1, 8] | R2 (nm), detergent hydrodynamic radius [2] | LHI-RC protein stability when concentration increases from CMC+0.04 wt % to CMC+0.2 wt % (LHI-RC complex) | MelBst solubilization from the membrane ([3]; 0° C. and 45° C.) | MelBst protein extraction efficiency ([3]; 0° C.) | MelBst solubilization from the membrane ([3]; 65° C.) | maintenance of MelB protein function (galactoside binding) of two homologs (MelBSt and MelBEc) | long-term β2AR receptor activity (β2AR) | integrity of β2AR-Gs complex (β2AR-Gs complex [4]) | homogeneity of β2AR-Gs complex particles (negative stain EM) (β2AR-Gs complex [5]) | MelBst solubilization from the membrane ([3]; 55° C.) | integrity of β2AR-Gs complex (SEC) (β2AR-Gs complex [6]) | homogeneity of β2AR-Gs complex particles (negative stain EM) (β2AR-Gs complex [7])
1 | CCCCCCCCCCCCO[C@@H]1O[C@H](CO)[C@@H](O[C@H]2O[C@H](CO)[C@@H](O)[C@H](O)[C@H]2O)[C@H](O)[C@H]1O [DDM, n-dodecyl-β-D-maltopyranoside] | 170 µM | 170 µM | 0.0087 wt % | 3.4 ± 0.0 nm | protein stability decreases | stably solubilized | higher protein extraction efficiency than DTMs | did not occur | only one of the two homologs | rapid loss of activity over time | significant dissociation between the receptor and Gs protein even after 2 day-incubation | aggregation of particles |  |  | 
2 | CCCCCCC(CCCCCC)COCC(COCC(CCCCCC)CCCCCC)COCC(CO[C@@H]1OC(CO)[C@@H](O[C@H]2OC(CO)[C@@H](O)C(O)C2O)C(O)C1O)(CO[C@@H]1OC(CO)[C@@H](O[C@H]2OC(CO)[C@@H](O)C(O)C2O)C(O)C1O)CO[C@@H]1OC(CO)[C@H](O[C@H]2OC(CO)[C@@H](O)C(O)C2O)C(O)C1O (stereo partly drawn) [DTM-A6] |  | ~10 µM | ~0.0015 wt % | 3.7 ± 0.0 nm |  |  |  |  | maintain protein function | consistently maintained |  |  | most effectively solubilized | continuously maintains its integrity as a complex for 15 days | highly homogeneous
3 | CCCCCCCCO[C@@H]1O[C@H](CO)[C@@H](O)[C@H](O)[C@H]1O [OG, n-octyl-β-D-glucopyranoside] |  |  |  |  | protein stability decreases |  |  |  |  |  |  |  |  |  | 
